Like-named read-outs stand apart in the source and are kept apart here. Where no end group is shown, it is not given here.
Tests used:
[1] = test system: P. aeruginosa CDC 0509
Description: (§1) SEQ ID NO: 1 stocks were made at 5.12 mg/mL in water adjusted to pH of 5.0 with 1% glacial acetic acid.
(§2) The test organisms (Table 7) consisted of clinical isolates from the Micromyx (MMX) repository, a reference isolate from the American Type Culture Collection (ATCC, Manassas, VA) and the Centers for Disease Control (CDC, Atlanta GA). Upon initial receipt, the isolates were streaked under suitable conditions onto agar medium appropriate to each organism. The organisms were incubated for 18-24 hr at 35° C. in ambient atmosphere. Colonies harvested from these growth plates were resuspended in the appropriate medium containing a cryoprotectant. Aliquots of each suspension were then stored frozen at −80° C. Prior to testing, all organisms were cultured onto trypticase soy agar containing 5% sheep blood. The agar plates were incubated as described above.
(§3) The Test media used for MIC and FIC were testing were cation-adjusted Mueller-Hinton broth (CAMHB) and Roswell Park Memorial Institute (RPMI-1640), buffered with 3-(N-morpholino)propanesulfonic acid (MOPS). Each test media was supplemented with 0.002% Tween-80 (P-80) prior to testing.
(§4) MIC assay plates were prepared for broth microdilution in accordance with guidelines from the Clinical and Laboratory Standards Institute (CLSI); automated liquid handlers (Biomek 3000 and Biomek FX) and multi-channel pipettes were used to conduct serial dilutions and liquid transfers. MIC assay plates were prepared using a 96-well, deep-well microdilution plate that mimicked the layout of the daughter plates.
(§5) For the mother plate, wells across the standard 96-well microdilution plate were filled with 150 μL of sterile saline 0.002% P-80 in columns 2 through 12. […] The Biomek 300 was used to make eleven 2-fold serial dilutions horizontally across each row of the plate from columns 2 through 11. The Biomek FX was then used to transfer 5 μL of the SEQ ID NO: 1 and saline 0.002% P-80 to the daughter plates.
(§6) A standardized inoculum of each organism was prepared per CLSI methods. Suspensions were prepared to equal a 0.5 McFarland standard followed by a 1:10 dilution into test medium. The inocula were dispensed into sterile reservoirs divided by length and the Biomek 3000 was used to inoculate the plates. Daughter plates were placed on the Biomek 3000 work surface in reverse orientation so that inoculation took place from low to high drug concentration. The Biomek 3000 delivered 10 μL of the diluted suspension into each well. These inoculations yielded a final cell concentration in the daughter plates of approximately 5×10^5 CFU/mL in each well. Plates were incubated at 35° C. for 16-20 hr. The microplates were viewed from the bottom using a plate viewer and the MIC was recorded as the lowest concentration of drug that inhibited visible growth of the organism.

[2] = test system: S. epidermidis MMX 5129
Description: as §1, §2, §3, §4, §5, §6

[3] = test system: P. aeruginosa CDC 0515; settings: RPMI
Description: FIC test ranges were set based on broth microdilution MIC test data. FIC assay plates were prepared in accordance with CLSI guidelines for broth microdilution susceptibility testing; automated liquid handlers, and multi-channel pipettes were used to conduct serial dilutions and liquid transfers.
SEQ ID NO: 1 was tested at two concentration ranges depending on the test media. All organisms tested in CAMHB 0.002% P-80 were tested from 0.015-16 μg/mL; when tested in RPMI 0.002% P-80, the range tested was 0.004-4 μg/mL. For each SEQ ID NO: 1 mother, wells across the standard 96-well microdilution plate were filled with 150 μL of sterile saline 0.002% P-80 in columns 2 through 12. A 300 μL aliquot at 20× the highest final concentration of each dilution range to be tested, was added to each well in column 1 of the plate. The Biomek 3000 was used to make eleven 2-fold serial dilutions horizontally across each row of the plate columns 2 through 11.
The daughter plates were then completed using the Biomek FX to transfer 5 μL of drug solution from each well of the SEQ ID NO: 1 mother plates to the corresponding well in each daughter plate in a single step. […] The preparation of the daughter plates was performed for each media type; two times in total as all organisms were tested in both media types.
A standard inoculum for each organism was prepared per CLSI method. Colonies were picked up from the primary plate and a suspension was prepared equal to 0.5 McFarland turbidity standard. The suspensions were additionally diluted 1:10 in the appropriate broth. A 10 μL standardized inoculum was delivered into each well using the Biomek 3000 from low to high concentration. These inoculations yielded a final cell concentration in the daughter plates of approximately 5×10^5 CFU/mL in each well. […] Exemplary checkboard panels are seen in Table 5 and Table 6. Plates were incubated at 35° C. for 16-20 hr.
The MIC of the horizontal agent (row H) and the MIC of the vertical agent (column 12) were recorded and the wells of the growth-no growth interface for wells containing agents in combination at varying ratios were recorded by row. […] Pinpoint trailing was not interpreted as growth.
For each relevant row of the panel, the FICI was calculated as:
FICdrug A/MICdrug A+FICdrug B/MICdrug=FICI
Mean FICI values were determined for each combination tested by averaging the FICI values as observed on each row of the checkerboard assay (See Table 9, e.g., if there were FICI values for B-G, those FICI values were added together and divided by the number of rows the FICI values which in this case is 6 to get the mean FICI value for that combination).
Using the criteria described by: Odds FC. 2003. Synergy, antagonism, and what the chequerboard puts between them. J Antimicrob Chemother 52(1):1, the mean FICI for the combination was interpreted as follows: ≤0.5=synergy, >0.5-4=additive/indifferent, and >4=antagonism. […] An interpretation of indifference is consistent with growth inhibition at concentrations at or slightly below/above the MICs of the individual agents alone, resulting in a FICI value of >0.5 but […].

[4] = test system: S. epidermidis; test: Broth microdilution MIC, PJI isolates (Example 1); format: cell-based, Staphylococcus epidermidis; settings: RPMI
Description: (§7) Imipenem, levofloxacin, tigecycline, linezolid, vancomycin, oxacillin, ceftazidime, colistin, and amikacin were tested as comparators. Testing was conducted in accordance with guidelines from the Clinical and Laboratory Standards Institute (CLSI; M7 and M100). Test organisms comprised reference strains from the American Type Culture Collection, the Centers for Disease Control Antibiotic Reference Bank and clinical isolates from the Micromyx repository.

[5] = test system: A. baumannii; test: Broth microdilution MIC, PJI isolates (Example 1); format: cell-based, Acinetobacter baumannii; settings: RPMI; N = 24
Description: as §7

Sequence: RRWVRRVRRVWRRVVRVVRRWVRR [SEQ ID NO: 1]
- MIC ([1]; CAMHB): 8 µg/mL
- MIC ([1]; RPMI): 4 µg/mL
- MIC ([1]; stated in FIG. 5 legends (time-kill), printed P. Aeruginosa CDC 0451): 16 µg/mL
- MIC ([2]; CAMHB): 1 µg/mL
- MIC ([2]; RPMI): 0.12 µg/mL
- FICI ([3]; checkerboard row A, with Sodium Bicarbonate at 100): 2.5
- FICI ([3]; checkerboard row B, with Sodium Bicarbonate at 50): 2.25
- FICI ([3]; checkerboard row C, with Sodium Bicarbonate at 25): 1.125
- MIC50 ([4]; All S. epidermidis (N = 104)): 0.12 µg/mL
- MIC90 ([4]; All S. epidermidis (N = 104)): 0.12 µg/mL
- MIC50 ([4]; MRSE (N = 58)): 0.12 µg/mL
- MIC90 ([4]; MRSE (N = 58)): 0.12 µg/mL
- MIC50 ([4]; MSSE (N = 46)): 0.12 µg/mL
- MIC90 ([4]; MSSE (N = 46)): 0.12 µg/mL
- MIC50 [5]: 0.25 µg/mL
- MIC90 [5]: 0.25 µg/mL
